According to PubChem BioAssay (NCI):
“And” between values parts separate entries of the source, which are not always exact repeats. Identical values can stand only once.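 How tested: cells in 96-well plates exposed to compound for 48 hours at five concentrations. Here, GI50 denotes the concentration required for 50% inhibition of growth. TGI: total growth inhibition.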 Where a SMILES comes first, the peptide text is derived from it. Side-chain parts run from the residue outwards. [ ]: non-standard residue; d: D form. The star is where a group is joined. X28 = COC1=CC(=O)N(C(=O)[C@@H](O*)C(C)C)[C@H]1Cc1ccccc1; NMeL = CN[C@@H](CC(C)C)C(=O)O; Cbz = O=C(OCc1ccccc1)*; Boc = CC(C)(C)OC(=O)*

Experiments:
Assay in all cases: NCI tumour cell line growth inhibition, 48 h
[1] = test system: SF-539 CNS
[2] = test system: SK-MEL-5 melanoma
[3] = test system: M14 melanoma
[4] = test system: OVCAR-5 ovarian
[5] = test system: HCT-15 colon
[6] = test system: SW-620 colon
[7] = test system: HCC-2998 colon
[8] = test system: LOX IMVI melanoma
[9] = test system: HT29 colon
[10] = test system: MOLT-4 leukemia

Structure (SMILES) | TGI [1] | TGI [2] | TGI [3] | TGI [4] | TGI [5] | TGI [6] | TGI [7] | TGI [8] | TGI [9] | TGI [10] | GI50 [3] | GI50 [10]
C[N+](C)(N)Cc1csc(-c2ccc(Cl)cc2)n1 | > 100 µM | > 100 µM | > 100 µM | > 100 µM | > 100 µM | > 100 µM | > 100 µM | > 100 µM | > 100 µM | – | – | –
CC1(C)C(C(=O)OC(C#N)c2cccc(OCC(=O)OCc3ccccc3)c2)C1(C)C (stereo not given) | > 100 µM | > 100 µM | > 100 µM | > 100 µM | > 100 µM | > 100 µM | – | > 100 µM | > 100 µM | 62.7 µM | – | –
CCN(CC)CCNc1ccc2nnn3c4ccc(OC(C)=O)cc4c(=O)c1c23 | 9.47 µM | 11.2 µM | 21 µM | 24 µM | 13.6 µM | 13.6 µM | 17.4 µM | 6.83 µM | 11.4 µM | – | – | –
COc1cc(C(c2cc(OC)c(OC)c(OC)c2)N2C(=O)CCC2C(=O)O)cc(OC)c1OC (stereo not given) | > 100 µM | > 100 µM | > 100 µM | > 100 µM | > 100 µM | > 100 µM | – | – | > 100 µM | > 100 µM | – | –
CCOC(=O)CCc1c(C)c2c(O)cc(O)cc2oc1=O | > 100 µM | > 100 µM | – | > 100 µM | > 100 µM | > 100 µM | > 100 µM | > 100 µM | > 100 µM | > 100 µM | – | –
O=C(O)C1Cc2ccccc2OC1=O (stereo not given) | > 100 µM | > 100 µM | > 100 µM | > 100 µM | > 100 µM | > 100 µM | > 100 µM | – | > 100 µM | > 100 µM | – | –
CN(c1ccccc1Cl)S(=O)(=O)c1ccccc1 | > 100 µM | > 100 µM | > 100 µM | > 100 µM | > 100 µM | > 100 µM | – | > 100 µM | > 100 µM | > 100 µM | – | –
CC(C)CC(NC(=O)OCc1ccccc1)C(=O)NCCCCC(NC(=O)C(CCCCNC(=O)C(CC(C)C)NC(=O)OCc1ccccc1)NC(=O)C(CCCCNC(=O)C(CC(C)C)NC(=O)OCc1ccccc1)NC(=O)C(CCCCNC(=O)C(CC(C)C)NC(=O)OCc1ccccc1)NC(=O)OC(C)(C)C)C(=O)O (stereo not given) (Boc-K([Leu-Cbz])K([Leu-Cbz])K([Leu-Cbz])K([Leu-Cbz])-OH; configuration not given here) | – | > 25 µM | > 25 µM | > 25 µM | > 25 µM | > 25 µM | > 25 µM | > 25 µM | > 25 µM | > 25 µM | – | –
COc1ccc(-c2c(C(C)=O)c(-c3ccccc3)n(C3OC(COC(C)=O)C(OC(C)=O)C(OC(C)=O)C3OC(C)=O)c(=S)c2C#N)cc1O (stereo not given) | – | > 100 µM | > 100 µM | > 100 µM | > 100 µM | > 100 µM | 42 µM and 80.5 µM | > 100 µM | > 100 µM | > 100 µM | 36.2 µM and 93 µM | 18.2 µM and 52.8 µM
Cc1ccc(-c2nc3n(c2/C=N\N=C(N)N)CCS3)cc1 | 28.5 µM | 27.2 µM | – | 30.1 µM | 31.8 µM | 30.8 µM | 24.2 µM | 31.9 µM | 27.3 µM | > 100 µM | – | –
CCC(c1nc2ccccc2c(=O)n1NC(=O)C(C)(C)C)C1(O)CCCCC1 (stereo not given) | > 100 µM | > 100 µM | > 100 µM | > 100 µM | > 100 µM | > 100 µM | – | – | > 100 µM | > 100 µM | – | –
CCOc1ccc(C(c2c(O)c3ccccc3oc2=O)c2c(O)c3ccccc3oc2=O)cc1 | > 100 µM | > 100 µM | > 100 µM | > 100 µM | > 100 µM | > 100 µM | – | > 100 µM | > 100 µM | > 100 µM | – | –
CCOC(=O)CC(=Nc1cc(C)on1)N(CC)CC | > 100 µM | > 100 µM | > 100 µM | > 100 µM | > 100 µM | > 100 µM | – | – | > 100 µM | > 100 µM | – | –
Cc1ccc(C(=O)NC(C)C)cc1N=NN(C)C | > 100 µM | > 100 µM | > 100 µM | – | > 100 µM | > 100 µM | > 100 µM | > 100 µM | > 100 µM | – | – | –
COC(=O)C(Cc1ccccc1)NC(=O)C(CCCN=C(N)N)NC(=O)OCc1ccccc1 (stereo not given) | – | > 100 µM | > 100 µM | > 100 µM | > 100 µM | > 100 µM | > 100 µM | > 100 µM | > 100 µM | > 100 µM | – | –
O=C(Nc1cc([N+](=O)[O-])cc([N+](=O)[O-])c1)OC1C2CCC1C1OC1C2 (stereo not given) | > 50 µM | > 50 µM | > 50 µM | > 50 µM | > 50 µM | > 50 µM | > 50 µM | – | – | > 50 µM | – | –
COC1=CC(=O)N(C(=O)[C@@H](OC(=O)[C@@H]2CCCN2C(=O)[C@@H]2CCCN2C(=O)[C@H](CC(C)C)N(C)C(=O)[C@@H](NC(=O)[C@@H](NC(=O)OCc2ccccc2)C(C)C)C(C)C)C(C)C)[C@H]1Cc1ccccc1 (Cbz-VV[NMeL]PP-X28) | 43.8 µM | – | > 100 µM | > 100 µM | > 100 µM | > 100 µM | > 100 µM | > 100 µM | > 100 µM | – | – | –
S=C1NC2=C(COC/C2=C\c2ccccc2Cl)C(c2ccccc2Cl)N1 (stereo not given) | > 100 µM | 34.6 µM | > 100 µM | > 100 µM | > 100 µM | > 100 µM | 89 µM | 70.7 µM | – | 44.5 µM | – | –
CCN(CC)CCNC(=O)c1cc2cc(NC(=O)c3cc4cc(NC(=O)c5cc6cc([N+](=O)[O-])ccc6[nH]5)ccc4[nH]3)ccc2[nH]1 | – | > 100 µM | > 100 µM | > 100 µM | > 100 µM | > 100 µM | > 100 µM | > 100 µM | > 100 µM | > 100 µM | – | –
Cc1cc(O)c(/C=N/C(=O)NN)c(=O)o1 | > 100 µM | > 100 µM | > 100 µM | > 100 µM | > 100 µM | > 100 µM | > 100 µM | > 100 µM | – | > 100 µM | – | –
C[n+]1c(-c2ccc(/C=N/Nc3n[nH]c(=S)n3N/N=C/c3ccc(-c4cn5ccccc5[n+]4C)cc3)cc2)cn2ccccc21 | > 100 µM | > 100 µM | > 100 µM | > 100 µM | > 100 µM | > 100 µM | > 100 µM | – | > 100 µM | > 100 µM | – | –
